Data as given in patent US11572369B2, “Bicyclic pyridine compositions and methods of using the same for cancer therapy” (UNIVERSITY OF SOUTH CAROLINA, priority 2019, dated 2023).

Key:
Assay in all cases: KINOMEscan
Assay type in all cases: binding
Settings in all cases: 2000 nM
[1] = biological target: ABL1(F317I)-phosphorylated (Homo sapiens, UniProt P00519, F317I)
[2] = biological target: ABL1(T315I)-phosphorylated (Homo sapiens, UniProt P00519, T315I)
ADCK4 = biological target: T1, ADCK4 (Homo sapiens, UniProt Q96D53)
T1 construct: purchased DiscoveRx (KINOMEscan scanMAX panel, service)

BLK = biological target: T2, BLK (Homo sapiens, UniProt P51451)
T2 construct: DNA label (for qPCR read-out); purchased KINOMEscan scanMAX panel (DiscoveRx)

CAMKK1 = biological target: T3, CAMKK1 (Homo sapiens, UniProt Q8N5S9)
T3 construct: DNA label (qPCR read-out); purchased KINOMEscan (ScanMAX panel service)

CDK5 = biological target: T4, CDK5 (Homo sapiens, UniProt Q00535)
T4 construct: purchased DiscoverX (KINOMEscan service)

CDKL3 = biological target: T5, CDKL3 (Homo sapiens, UniProt Q8IVW4)
T5 construct: DNA label (for qPCR read-out); purchased DiscoveRx (KINOMEscan scanMAX service)

CSF1R = biological target: T6, CSF1R (Homo sapiens, UniProt P07333)
T6 construct: DNA label (for qPCR read-out); purchased DiscoveRx (KINOMEscan scanMAX service)

DCAMKL2 = biological target: T7, DCAMKL2 (Homo sapiens, UniProt Q8N568)
T7 construct: DNA label (qPCR read-out); purchased KINOMEscan (DiscoveRx) panel

DYRK1B = biological target: T8, DYRK1B (Homo sapiens, UniProt Q9Y463)
T8 construct: DNA label (qPCR read-out); purchased KINOMEscan (DiscoveRx) panel

EGFR(G719S) = biological target: T9, EGFR(G719S) (Homo sapiens, UniProt P00533, G719S)
T9 construct: purchased DiscoveRx (KINOMEscan scanMAX panel)

EGFR(L747-T751del, Sins) = biological target: T10, EGFR(L747-T751del, Sins) (Homo sapiens, UniProt P00533, DEL747-750/T751S)
T10 construct: purchased DiscoveRx (KINOMEscan scanMAX panel)

EPHA7 = biological target: T11, EPHA7 (Homo sapiens, UniProt Q15375)
T11 construct: purchased DiscoveRx (KINOMEscan scanMAX panel)

GRK7 = biological target: T12, GRK7 (Homo sapiens, UniProt Q8WTQ7)
T12 construct: DNA label (for qPCR read-out); purchased DiscoveRx (KINOMEscan scanMAX panel, contract assay)

HIPK3 = biological target: T13, HIPK3 (Homo sapiens, UniProt Q9H422)
T13 construct: DNA label (for qPCR read-out); purchased DiscoveRx (KINOMEscan scanMAX panel, contract assay)

HIPK4 = biological target: T14, HIPK4 (Homo sapiens, UniProt Q8NE63)
T14 construct: DNA label (for qPCR read-out); purchased DiscoveRx (KINOMEscan scanMAX panel, contract assay)

IRAK3 = biological target: T15, IRAK3 (Homo sapiens, UniProt Q9Y616)
T15 construct: DNA label (qPCR read-out); purchased KINOMEscan (DiscoveRx) ScanMAX panel

KIT(A829P) = biological target: T16, KIT(A829P) (Homo sapiens, UniProt P10721, A829P)
T16 construct: DNA label (for qPCR read-out); purchased DiscoveRx (KINOMEscan scanMAX panel)

[3] = biological target: T17, (Homo sapiens, UniProt P20794)
T17 construct: DNA label (qPCR read-out); purchased DiscoverX (KINOMEscan service)

MINK = biological target: T18, MINK (Homo sapiens, UniProt Q8N4C8)
T18 construct: DNA label (qPCR read-out); purchased KINOMEscan scanMAX panel (DiscoveRx)

MRCKA = biological target: T19, MRCKA (Homo sapiens, UniProt Q5VT25)
T19 construct: DNA label (qPCR read-out); purchased KINOMEscan scanMAX panel (DiscoveRx)

PAK3 = biological target: T20, PAK3 (Homo sapiens, UniProt O75914)
T20 construct: purchased DiscoverX (KINOMEscan service)

PAK4 = biological target: T21, PAK4 (Homo sapiens, UniProt O96013)
T21 construct: purchased DiscoverX (KINOMEscan service)

PIK3CG = biological target: T22, PIK3CG (Homo sapiens, UniProt P48736)
T22 construct: DNA label; purchased DiscoveRx (KINOMEscan scanMAX panel)

PKN1 = biological target: T23, PKN1 (Homo sapiens, UniProt Q16512)
T23 construct: DNA label (qPCR read-out); purchased KINOMEscan (DiscoveRx) panel

RIOK1 = biological target: T24, RIOK1 (Homo sapiens, UniProt Q9BRS2)
T24 construct: DNA label (qPCR read-out); purchased DiscoveRx (KINOMEscan ScanMAX panel)

[4] = biological target: T25, RSK1(Kin.Dom.1-N-terminal) (Homo sapiens, UniProt Q15418)
T25 construct: RSK1(Kin.Dom.1); purchased DiscoveRx (KINOMEscan scanMAX panel)

[5] = biological target: T26, RSK3(Kin.Dom.2-C-terminal) (Homo sapiens, UniProt Q15349)
T26 construct: RSK3(Kin.Dom.2); purchased DiscoveRx (KINOMEscan scanMAX panel)

SRMS = biological target: T27, SRMS (Homo sapiens, UniProt Q9H3Y6)
T27 construct: purchased KINOMEscan (DiscoveRx)

TEC = biological target: T28, TEC (Homo sapiens, UniProt P42680)
T28 construct: DNA label (for qPCR read-out); purchased DiscoveRx (KINOMEscan scanMAX panel, contract assay)

TRKA = biological target: T29, TRKA (Homo sapiens, UniProt P04629)
T29 construct: DNA label (qPCR read-out); purchased KINOMEscan (DiscoveRx) ScanMAX panel

ULK2 = biological target: T30, ULK2 (Homo sapiens, UniProt Q8IYT8)
T30 construct: DNA label (for qPCR read-out); purchased DiscoveRx (KINOMEscan scanMAX panel)

WEE1 = biological target: T31, WEE1 (Homo sapiens, UniProt P30291)
T31 construct: purchased KINOMEscan (DiscoveRx) panel service

WNK3 = biological target: T32, WNK3 (Homo sapiens, UniProt Q9BYP7)
T32 construct: purchased KINOMEscan (DiscoveRx) panel service

T23 sequence (Q16512 whole entry): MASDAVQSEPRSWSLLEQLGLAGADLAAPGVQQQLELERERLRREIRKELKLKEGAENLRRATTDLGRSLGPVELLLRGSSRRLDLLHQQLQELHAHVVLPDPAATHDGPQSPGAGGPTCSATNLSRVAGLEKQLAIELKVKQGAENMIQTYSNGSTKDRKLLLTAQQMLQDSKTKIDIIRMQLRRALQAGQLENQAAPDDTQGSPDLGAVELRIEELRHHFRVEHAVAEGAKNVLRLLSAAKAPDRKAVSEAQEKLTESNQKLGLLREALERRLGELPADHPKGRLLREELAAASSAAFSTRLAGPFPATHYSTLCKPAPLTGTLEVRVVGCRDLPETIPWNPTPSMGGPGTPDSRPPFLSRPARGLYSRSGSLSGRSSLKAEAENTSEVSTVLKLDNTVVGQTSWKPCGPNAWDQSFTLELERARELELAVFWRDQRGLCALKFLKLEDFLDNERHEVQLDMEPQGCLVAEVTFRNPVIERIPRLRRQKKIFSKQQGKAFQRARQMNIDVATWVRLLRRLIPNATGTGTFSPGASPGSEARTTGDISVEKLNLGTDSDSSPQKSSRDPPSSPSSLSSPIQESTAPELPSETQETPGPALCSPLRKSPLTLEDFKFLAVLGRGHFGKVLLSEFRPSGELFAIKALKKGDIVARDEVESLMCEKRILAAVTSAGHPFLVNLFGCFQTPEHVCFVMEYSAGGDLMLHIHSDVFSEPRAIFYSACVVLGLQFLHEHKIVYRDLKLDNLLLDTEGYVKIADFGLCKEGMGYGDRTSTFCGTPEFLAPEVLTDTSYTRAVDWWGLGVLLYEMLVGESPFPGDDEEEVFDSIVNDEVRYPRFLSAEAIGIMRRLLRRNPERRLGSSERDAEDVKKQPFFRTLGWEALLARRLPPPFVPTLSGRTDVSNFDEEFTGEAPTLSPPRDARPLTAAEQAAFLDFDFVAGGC
T3 sequence (Q8N5S9 whole entry): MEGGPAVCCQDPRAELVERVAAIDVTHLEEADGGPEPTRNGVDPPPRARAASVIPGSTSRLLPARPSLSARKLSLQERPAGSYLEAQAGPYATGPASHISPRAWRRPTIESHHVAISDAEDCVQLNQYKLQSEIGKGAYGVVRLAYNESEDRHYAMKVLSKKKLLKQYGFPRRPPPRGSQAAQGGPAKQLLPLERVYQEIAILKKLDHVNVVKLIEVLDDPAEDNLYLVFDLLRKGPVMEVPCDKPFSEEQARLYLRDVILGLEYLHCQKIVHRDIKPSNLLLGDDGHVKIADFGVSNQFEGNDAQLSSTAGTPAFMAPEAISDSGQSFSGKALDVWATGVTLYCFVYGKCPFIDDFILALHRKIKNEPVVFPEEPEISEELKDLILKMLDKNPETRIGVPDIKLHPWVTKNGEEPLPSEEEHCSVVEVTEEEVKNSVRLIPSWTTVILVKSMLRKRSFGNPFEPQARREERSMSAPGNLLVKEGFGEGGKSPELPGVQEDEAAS
T21 sequence (O96013 whole entry): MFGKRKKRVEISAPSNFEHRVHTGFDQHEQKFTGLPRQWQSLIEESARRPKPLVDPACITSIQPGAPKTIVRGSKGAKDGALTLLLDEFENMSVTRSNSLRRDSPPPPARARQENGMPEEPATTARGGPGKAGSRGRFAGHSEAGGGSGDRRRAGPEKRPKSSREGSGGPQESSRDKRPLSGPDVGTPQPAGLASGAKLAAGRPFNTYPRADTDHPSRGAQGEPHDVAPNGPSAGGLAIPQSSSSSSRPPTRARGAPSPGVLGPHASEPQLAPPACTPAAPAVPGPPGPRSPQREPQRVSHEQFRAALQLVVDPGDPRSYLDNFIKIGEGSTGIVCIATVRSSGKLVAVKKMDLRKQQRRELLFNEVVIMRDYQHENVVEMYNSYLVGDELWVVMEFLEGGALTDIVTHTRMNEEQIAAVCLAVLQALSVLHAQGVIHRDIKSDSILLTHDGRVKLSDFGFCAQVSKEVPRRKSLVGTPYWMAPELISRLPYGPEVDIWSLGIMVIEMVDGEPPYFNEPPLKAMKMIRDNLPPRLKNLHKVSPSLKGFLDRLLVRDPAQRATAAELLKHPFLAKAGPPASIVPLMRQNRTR
T26 sequence (Q15349 415-672 limits assumed): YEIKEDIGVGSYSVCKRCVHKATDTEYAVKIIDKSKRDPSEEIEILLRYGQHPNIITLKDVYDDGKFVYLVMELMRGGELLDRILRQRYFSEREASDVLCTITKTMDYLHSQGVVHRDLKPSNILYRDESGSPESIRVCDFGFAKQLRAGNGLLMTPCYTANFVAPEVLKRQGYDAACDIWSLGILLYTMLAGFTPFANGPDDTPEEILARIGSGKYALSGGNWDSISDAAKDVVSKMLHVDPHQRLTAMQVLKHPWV
T15 sequence (Q9Y616 whole entry): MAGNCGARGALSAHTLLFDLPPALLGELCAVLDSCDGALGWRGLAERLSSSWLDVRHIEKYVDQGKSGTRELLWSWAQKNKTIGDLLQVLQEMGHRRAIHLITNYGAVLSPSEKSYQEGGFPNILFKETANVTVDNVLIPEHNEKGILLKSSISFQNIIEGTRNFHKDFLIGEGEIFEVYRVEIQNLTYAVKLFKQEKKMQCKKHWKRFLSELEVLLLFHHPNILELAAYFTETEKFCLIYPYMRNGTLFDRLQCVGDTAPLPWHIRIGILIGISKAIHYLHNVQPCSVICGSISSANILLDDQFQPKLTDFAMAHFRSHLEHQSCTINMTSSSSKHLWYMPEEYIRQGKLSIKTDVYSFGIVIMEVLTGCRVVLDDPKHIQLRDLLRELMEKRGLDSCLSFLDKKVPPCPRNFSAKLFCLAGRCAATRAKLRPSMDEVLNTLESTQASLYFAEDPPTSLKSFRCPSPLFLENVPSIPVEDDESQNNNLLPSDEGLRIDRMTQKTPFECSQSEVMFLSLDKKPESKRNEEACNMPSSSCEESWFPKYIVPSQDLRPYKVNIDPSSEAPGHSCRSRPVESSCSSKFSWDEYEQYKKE
T31 sequence (P30291 whole entry): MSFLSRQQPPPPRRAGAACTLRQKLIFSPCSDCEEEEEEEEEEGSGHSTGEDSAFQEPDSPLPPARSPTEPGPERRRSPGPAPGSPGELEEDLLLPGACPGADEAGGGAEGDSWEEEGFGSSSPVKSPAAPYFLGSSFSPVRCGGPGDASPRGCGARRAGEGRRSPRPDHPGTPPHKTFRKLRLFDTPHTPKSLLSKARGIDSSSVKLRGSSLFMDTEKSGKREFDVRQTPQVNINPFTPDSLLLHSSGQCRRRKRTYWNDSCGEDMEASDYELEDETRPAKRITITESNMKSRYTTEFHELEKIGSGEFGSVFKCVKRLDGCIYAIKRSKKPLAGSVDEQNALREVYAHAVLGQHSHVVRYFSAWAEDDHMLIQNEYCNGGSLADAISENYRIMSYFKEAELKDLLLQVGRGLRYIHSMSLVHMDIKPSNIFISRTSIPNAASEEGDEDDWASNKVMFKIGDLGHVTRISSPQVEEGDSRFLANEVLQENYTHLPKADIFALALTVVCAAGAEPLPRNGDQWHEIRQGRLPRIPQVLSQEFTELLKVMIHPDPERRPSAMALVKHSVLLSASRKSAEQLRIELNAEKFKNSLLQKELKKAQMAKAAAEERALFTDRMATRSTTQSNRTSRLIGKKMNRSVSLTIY
T5 sequence (Q8IVW4 whole entry): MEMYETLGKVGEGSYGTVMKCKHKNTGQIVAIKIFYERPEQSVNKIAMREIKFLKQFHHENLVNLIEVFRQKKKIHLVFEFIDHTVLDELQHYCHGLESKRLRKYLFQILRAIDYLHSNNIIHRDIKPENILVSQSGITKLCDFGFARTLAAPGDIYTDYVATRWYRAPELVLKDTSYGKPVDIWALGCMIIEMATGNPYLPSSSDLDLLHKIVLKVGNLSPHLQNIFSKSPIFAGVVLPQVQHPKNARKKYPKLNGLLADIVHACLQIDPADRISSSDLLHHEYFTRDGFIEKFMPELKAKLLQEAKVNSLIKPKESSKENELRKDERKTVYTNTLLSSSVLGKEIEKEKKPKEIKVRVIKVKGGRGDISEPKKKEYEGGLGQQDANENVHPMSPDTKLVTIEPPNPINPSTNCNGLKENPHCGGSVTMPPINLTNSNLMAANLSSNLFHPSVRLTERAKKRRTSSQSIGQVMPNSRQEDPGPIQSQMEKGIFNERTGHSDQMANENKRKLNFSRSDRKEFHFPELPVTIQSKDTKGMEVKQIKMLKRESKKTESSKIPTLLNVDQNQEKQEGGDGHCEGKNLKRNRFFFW
T4 sequence (Q00535 whole entry): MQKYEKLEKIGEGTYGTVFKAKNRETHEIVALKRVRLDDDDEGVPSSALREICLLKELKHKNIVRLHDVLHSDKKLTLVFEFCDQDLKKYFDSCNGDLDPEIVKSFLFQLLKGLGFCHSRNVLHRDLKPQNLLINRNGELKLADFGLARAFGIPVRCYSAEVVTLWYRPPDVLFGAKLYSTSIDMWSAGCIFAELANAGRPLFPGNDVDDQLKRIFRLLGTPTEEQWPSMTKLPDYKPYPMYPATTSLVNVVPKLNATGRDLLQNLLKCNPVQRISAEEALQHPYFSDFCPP
T24 sequence (Q9BRS2 whole entry): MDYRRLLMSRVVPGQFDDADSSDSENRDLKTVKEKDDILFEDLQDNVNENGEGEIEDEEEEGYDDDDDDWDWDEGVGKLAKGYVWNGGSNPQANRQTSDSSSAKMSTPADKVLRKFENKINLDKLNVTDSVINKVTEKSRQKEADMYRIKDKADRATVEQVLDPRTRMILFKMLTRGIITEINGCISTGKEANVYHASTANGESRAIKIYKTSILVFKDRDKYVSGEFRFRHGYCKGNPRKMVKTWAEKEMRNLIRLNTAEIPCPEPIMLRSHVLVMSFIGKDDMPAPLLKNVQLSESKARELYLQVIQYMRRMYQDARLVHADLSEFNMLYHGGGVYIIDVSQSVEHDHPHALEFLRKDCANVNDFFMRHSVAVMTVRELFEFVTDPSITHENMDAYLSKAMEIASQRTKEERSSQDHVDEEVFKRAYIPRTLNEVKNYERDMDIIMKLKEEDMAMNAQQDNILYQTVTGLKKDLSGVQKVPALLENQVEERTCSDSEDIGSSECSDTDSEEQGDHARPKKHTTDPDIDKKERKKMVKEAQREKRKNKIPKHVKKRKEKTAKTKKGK

CN(C)C(=O)c1ccc(N2CCCN(c3ccnc4sc(C(N)=O)c(N)c34)CC2)cc1 [15u, 3-amino-4-(4-(4-(dimethylcarbamoyl)phenyl)-1,4-diazepan-1-yl)thieno[2,3-b]pyridine-2-carboxamide]
% Ctrl [1]: 88 % Ctrl | % Ctrl [2]: 90 % Ctrl | % Ctrl (ADCK4): 95 % Ctrl | % Ctrl (BLK): 100 % Ctrl | % Ctrl (CAMKK1): 96 % Ctrl | % Ctrl (CDK5): 84 % Ctrl | % Ctrl (CDKL3): 100 % Ctrl | % Ctrl (CSF1R): 98 % Ctrl | % Ctrl (DCAMKL2): 100 % Ctrl | % Ctrl (DYRK1B): 69 % Ctrl | % Ctrl (EGFR(G719S)): 100 % Ctrl | % Ctrl (EGFR(L747-T751del, Sins)): 87 % Ctrl | % Ctrl (EPHA7): 92 % Ctrl | % Ctrl (GRK7): 100 % Ctrl | % Ctrl (HIPK3): 77 % Ctrl | % Ctrl (HIPK4): 100 % Ctrl | % Ctrl (IRAK3): 93 % Ctrl | % Ctrl (KIT(A829P)): 97 % Ctrl | % Ctrl [3]: 100 % Ctrl | % Ctrl (MINK): 100 % Ctrl | % Ctrl (MRCKA): 94 % Ctrl | % Ctrl (PAK3): 80 % Ctrl | % Ctrl (PAK4): 87 % Ctrl | % Ctrl (PIK3CG): 79 % Ctrl | % Ctrl (PKN1): 96 % Ctrl | % Ctrl (RIOK1): 100 % Ctrl | % Ctrl [4]: 98 % Ctrl | % Ctrl [5]: 100 % Ctrl | % Ctrl (SRMS): 81 % Ctrl | % Ctrl (TEC): 91 % Ctrl | % Ctrl (TRKA): 93 % Ctrl | % Ctrl (ULK2): 90 % Ctrl | % Ctrl (WEE1): 100 % Ctrl | % Ctrl (WNK3): 97 % Ctrl

[2H]C([2H])([2H])N(C(=O)c1ccc(N2CCCN(c3ccnc4sc(C(N)=O)c(N)c34)CC2)cc1)C([2H])([2H])[2H] [15u_D6, 3-amino-4-(4-(4-(bis(methyl-d3)carbamoyl)phenyl)-1,4-diazepan-1-yl)thieno[2,3-b]pyridine-2-carboxamide]
% Ctrl [1]: 84 % Ctrl | % Ctrl [2]: 78 % Ctrl | % Ctrl (ADCK4): 83 % Ctrl | % Ctrl (BLK): 92 % Ctrl | % Ctrl (CAMKK1): 100 % Ctrl | % Ctrl (CDK5): 94 % Ctrl | % Ctrl (CDKL3): 100 % Ctrl | % Ctrl (CSF1R): 95 % Ctrl | % Ctrl (DCAMKL2): 100 % Ctrl | % Ctrl (DYRK1B): 100 % Ctrl | % Ctrl (EGFR(G719S)): 100 % Ctrl | % Ctrl (EGFR(L747-T751del, Sins)): 100 % Ctrl | % Ctrl (EPHA7): 81 % Ctrl | % Ctrl (GRK7): 92 % Ctrl | % Ctrl (HIPK3): 81 % Ctrl | % Ctrl (HIPK4): 100 % Ctrl | % Ctrl (IRAK3): 89 % Ctrl | % Ctrl (KIT(A829P)): 51 % Ctrl | % Ctrl [3]: 91 % Ctrl | % Ctrl (MINK): 87 % Ctrl | % Ctrl (MRCKA): 100 % Ctrl | % Ctrl (PAK3): 40 % Ctrl | % Ctrl (PAK4): 100 % Ctrl | % Ctrl (PIK3CG): 76 % Ctrl | % Ctrl (PKN1): 100 % Ctrl | % Ctrl (RIOK1): 100 % Ctrl | % Ctrl [4]: 96 % Ctrl | % Ctrl [5]: 89 % Ctrl | % Ctrl (SRMS): 93 % Ctrl | % Ctrl (TEC): 81 % Ctrl | % Ctrl (TRKA): 78 % Ctrl | % Ctrl (ULK2): 83 % Ctrl | % Ctrl (WEE1): 88 % Ctrl | % Ctrl (WNK3): 100 % Ctrl
